Paper PMC9428149, “Tackling recalcitrant Pseudomonas aeruginosa infections in critical illness via anti-virulence monotherapy” (Nature Communications, 2022)
Like-named read-outs stand apart in the source and are kept apart here.

Legend:
[1] = system: pqsA promoter (PA14 PpqsA-GFPASV); assay: pqsA-GFP reporter expression; type: cell-based, Pseudomonas aeruginosa; settings: PA14 PpqsA-GFPASV; 50µM per b210 (method b76 says 10 µM)
Experimental: The expression levels of pqsA, which is representative of the pqsABCDE operon transcription, were monitored in the presence of the MvfR inhibitors using PA14 cells containing the PpqsA-GFPASV, a reporter construct of the pqsA promoter fused to a short half-life GFP gene in, such that quantitative quenching of fluorescence corresponds to pqsA promoter repression[22],[32],[48]. […] GFP fluorescence levels were measured at λex = 485 nm/λem = 535 nm after 10 seconds of shaking every 15 min up to 12 h. The IC50 of PpqsA-GFP expression levels was performed as above using the same 13 different concentrations (0.0122–50 μM) for each of the 13 compounds tested.

[2] = system: MvfR-regulated small molecules in PA14; assay: Production of HAQs, 2-AA, DHQ and AA in PA14 cultures (LC-MS); settings: PA14, 50µM inhibitor; for % Production AA: anthranilic acid, precursor control
Experimental: The HAQs HHQ, PQS, HQNO, and non-HAQs: 2-AA and DHQ produced by PA14 cells were quantified in the presence of NAMs. The overnight grown starter culture was diluted 1:100 in 5 mL LB media in a glass tube and was allowed to grow in the presence (50 µM) or absence of compound at 37 °C and 200 rpm in an incubator shaker until OD600 was 3. Bacterial cultures were subsequently mixed 1:1 (400 μL: 400 μL) with 100% methanol containing 20 ppm (20 μg mL^−1) of tetradeutero-PQS (PQS-D4) and 10 ppm of tetradeutero-HHQ (HHQ-D4) in a 1.5 mL Eppendorf tube. The mixture was vortexed for 5 seconds and spun down for 5 minutes at 12,000 x g. A 700 μL aliquot of the supernatant was removed and stored in glass vials at −20 °C until further liquid chromatography-mass spectrophotometry (LC/MS) analysis as previously described in Lepine et al., 2003[66]. LC/MC analysis was performed using a Micromass Quattro II triple quadrupole mass spectrometer (Micromass Canada, Pointe-Claire, Canada) in positive electrospray ionization mode, interfaced to an HP1100 HPLC equipped with a 4.5 × 150 mm reverse-phase C8 column.
GraphPad Prism 9.2.0 software was used to plot the IC50 curve against the percent inhibition of these small molecules’ production at each concentration.

[3] = system: pyocyanin production in PA14; assay: Pyocyanin production assay; settings: PA14; 50µM of each inhibitor (method says 10 μM); vs vehicle
Experimental: The over-day culture was grown to OD600nm 1.5., diluted again at 1:10,000 in 5 mL LB and incubated with 10 μM of the test compound or the vehicle control for 18 hours at 37 °C and 200 rpm in an incubator shaker. After 18 h, 1 mL of culture was centrifuged for 2 min at 20.000 x g. The supernatant was transferred to a new tube, 200 μL of this were loaded in a flat-bottom 96-well plate, and the pyocyanin levels were quantified by measuring at OD690nm in the infinite F200 plate reader using the Magellan software (Tecan, Switzerland). […] The percent of pyocyanin was calculated compared to the PA14 culture grown in the absence of compounds.
To determine the IC50 of pyocyanin production, we followed the same process as above. […] Using GraphPad Prism Software, the IC50 curve was plotted against percent inhibition of pyocyanin production at each concentration using PA14 in the absence of compounds as a control.

MvfR protein (MvfRC87) = target: T1, MvfR protein (MvfRC87) (Pseudomonas aeruginosa, UniProt Q9I4X0); type: binding; settings: SPR
T1 construct: The MvfRC87 protein purified as in Xiao et. al., 2006; made in house
Experimental: The selected compounds were tested for their ability to bind to MvfR. Target validation was carried out by using surface plasmon resonance (SPR). The MvfRC87 protein purified as in Xiao et. al., 2006[33] was covalently immobilized on a CM7 Series S sensor chip using an amine coupling reagent kit (GE Healthcare) at the range level of 3000 to 5000 response units (RU). RU was analyzed by Biacore T200 evaluation software 2.0 (GE Healthcare). The relative response units (RUs) 5 seconds before the end of the association were extracted from the double-reference-corrected sensor grams at different concentrations. These responses were plotted against their respective concentrations for MvfR inhibitor alone and in the presence of native MvfR ligand PQS and compared to the calculated responses for the mixture expected for different binding sites.

T1 sequence (Q9I4X0 87-332): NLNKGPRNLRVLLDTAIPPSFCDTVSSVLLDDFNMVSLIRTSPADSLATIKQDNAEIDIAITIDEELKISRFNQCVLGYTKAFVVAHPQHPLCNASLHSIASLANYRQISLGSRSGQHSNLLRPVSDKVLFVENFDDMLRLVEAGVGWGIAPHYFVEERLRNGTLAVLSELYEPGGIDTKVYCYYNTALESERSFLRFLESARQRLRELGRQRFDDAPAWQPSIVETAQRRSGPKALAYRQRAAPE

| SMILES | % Production pqsA-GFP [1] [%] | % Production 2-AA [2] [%] | % Production DHQ [2] [%] | % Production HHQ [2] [%] | % Production HQNO [2] [%] | % Production PQS [2] [%] | % Production AA [2] [%] | % Production Pyocyanin [3] [%] | Response Unit (RU) (MvfR protein (MvfRC87); Concentration 1.00E-05 M) | Response Unit (RU) (MvfR protein (MvfRC87); Concentration 1.00E-06 M) | Response Unit (RU) (MvfR protein (MvfRC87); Concentration 1.00E-07 M) | Response Unit (RU) (MvfR protein (MvfRC87); Concentration 1.00E-08 M) | Response Unit (RU) (MvfR protein (MvfRC87); Concentration 3.16E-06 M) | Response Unit (RU) (MvfR protein (MvfRC87); Concentration 3.16E-07 M) | Response Unit (RU) (MvfR protein (MvfRC87); Concentration 3.16E-08 M) |
| --- | --- | --- | --- | --- | --- | --- | --- | --- | --- | --- | --- | --- | --- | --- | --- |
| Cc1cc(F)ccc1NCC(=O)Nc1ccc(C#N)cc1 [M17] | 32 | 101 | 135 | 3 | 17 | 11 | 100 | 67 | 18.8 | 6.7 | 1.3 | 0.7 | 12.6 | 3 | 0.7 |
| N#Cc1ccc(NC(=O)C(=O)Nc2ccc(F)cc2)cc1 [D37] | 97 | 103 | 105 | 98 | 99 | 110 | 90 | 106 | – | – | – | – | – | – | – |
| N#Cc1ccc(NC(=O)CC(=O)Nc2ccc(F)cc2)cc1 [D36] | 10 | 37 | 68 | 57 | 59 | 47 | 187 | 16 | – | – | – | – | – | – | – |
| N#Cc1ccc(NC(=O)CCNc2ccc(F)cc2)cc1 [D34] | 80 | 113 | 100 | 97 | 96 | 97 | 101 | 91 | – | – | – | – | – | – | – |
| O=C(CC(=O)Nc1ccc([N+](=O)[O-])cc1O)Nc1ccc(Oc2ccccc2)cc1 [D61] | 7 | 12 | 8 | 1 | 8 | 6 | 112 | 6 | – | – | – | – | – | – | – |
| Cc1cc(F)ccc1N1CCCC(NC(=O)c2ccc(C#N)cc2)C1 (stereo not shown) [D38] | 90 | 101 | 84 | 98 | 100 | 96 | 54 | 108 | – | – | – | – | – | – | – |
| Cc1cc(F)ccc1OCC(=O)Nc1ccc(C#N)cc1 [G5] | 98 | 63 | 83 | 114 | 111 | 114 | 54 | 98 | – | – | – | – | – | – | – |
| Cc1cc(F)ccc1NCC(=O)Nc1ccc(C(F)(F)F)cc1 [G2] | 46 | 68 | 81 | 110 | 86 | 93 | – | 61 | – | – | – | – | – | – | – |
| N#Cc1ccc(NC(=O)CNc2ccc(F)cc2)cc1 [G8] | 63 | 112 | – | 87 | 108 | 124 | – | 86 | – | – | – | – | – | – | – |
| N#Cc1ccc(NC(=O)CC(=O)Nc2ccc(N)cc2)cc1 [D52] | 90 | 101 | 103 | 92 | 92 | 86 | 115 | 87 | – | – | – | – | – | – | – |
| N#Cc1ccc(NC(=O)CC(=O)Nc2ccc(Oc3ccccc3)cc2)c(N)c1 [D62] | 6 | 10 | 16 | 2 | 13 | 9 | 107 | 7 | – | – | – | – | – | – | – |
| N#Cc1ccc(NC(=O)CCC(=O)Nc2ccc(F)cc2)cc1 [D47] | 78 | 100 | 100 | 95 | 93 | 94 | 42 | 99 | – | – | – | – | – | – | – |
| N#Cc1ccc(NC(=O)CC(=O)Nc2ccc(Oc3ccccc3)cc2)c(O)c1 [D63] | 7 | 5 | 4 | 0 | 4 | 4 | 68 | 6 | – | – | – | – | – | – | – |
| Cc1cc(F)ccc1NCC(=O)Nc1cccc(C#N)c1 [G1] | 84 | 122 | – | 100 | 101 | 109 | – | 103 | – | – | – | – | – | – | – |
| CS(=O)(=O)Nc1ccc(NC(=O)CC(=O)Nc2ccc(C#N)cc2)cc1 [D55] | 131 | 95 | 80 | 130 | 98 | 115 | 117 | 100 | – | – | – | – | – | – | – |
| O=C(CC(=O)Nc1ccc(Oc2ccccc2)cc1)Nc1ccc(F)cc1 [D68] | 52 | 84 | 109 | 121 | 121 | 137 | 127 | 33 | – | – | – | – | – | – | – |
| N#Cc1ccc(NC(=O)CC(=O)Nc2ccc(C(=O)C(F)(F)F)cc2)cc1 [D50] | 102 | 140 | 89 | 107 | 103 | 104 | 176 | 84 | – | – | – | – | – | – | – |
| N#Cc1ccc(NC(=O)CC(=O)Nc2cccc(Cl)c2)cc1 [D71] | 10 | 57 | 92 | 106 | 127 | 105 | 207 | 13 | 31.7 | 19.5 | 5.9 | 2.4 | 26.8 | 11.4 | 3.1 |
| Cc1cc(F)ccc1NC(=O)Cc1ccc(C#N)cc1 [D40] | 96 | 113 | 85 | 102 | 109 | 100 | 81 | 115 | – | – | – | – | – | – | – |
| O=C(CC(=O)Nc1ccc([N+](=O)[O-])cc1)Nc1ccc(Oc2ccccc2)cc1 [D58] | 9 | 22 | 45 | 20 | 23 | 19 | 101 | 6 | – | – | – | – | – | – | – |
